pIC50: −log10 of the molar value. Like-named read-outs stand apart in the source and are kept apart here. Where only a bound is given, the exact number is not on record here.

For orientation: pIC50 means −log10 of the IC50, conventionally taken in molar units. Usually EC25 stands for the concentration needed for an effect of 25%. The term EC20 denotes the concentration at which the effect reaches the 20% level.

Experiment [1] addresses dihydropyridine receptor. As to the kind of experiment: inhibition of [3H]-nitrendipine binding in rat brain homogenate. As to conditions: read-out: IC50 (index of dihydropyridine receptor affinity; inhibition of [3H]-nitrendipine binding). An excerpt:
*Index of dihydropyridine receptor affinity: IC50 for inhibition of
[^3 H]--nitrendipine binding in rat brain homogenate.

Experiment [2] deals with isolated Langendorff rat heart. The experiment can be described thus: inotropic and vascular activities in the isolated Langendorff rat heart preparation (CVIH). The conditions noted are these: isolated perfused rat heart. As to the method: TEST FOR INOTROPIC, CHRONOTROPIC, AND VASCULAR ACTIVITIES IN THE ISOLATED LANGENDORFF RAT HEART PREPARATION (CARDIOVASCULAR ISOLATED HEART - CVIH)
Male rats (400-600 gms) are pretreated with 2000 units Na heparin (Parke-Davis) and anesthetized with Na pentobarbital (50 mg/kg, Butler Co.) administered intraperitoneally. Once anesthetized, the rat heart is rapidly excised, the ascending aorta fitted to the aorta perfusion cannula, and secured with a ligature. The coronary arteries are perfused initially at a rate of about 15 ml/min for two to three minutes, after which they are perfused at constant pressure of 70 mm Hg and temperature of 37° C. The electrocardiogram (ECG) is recorded using two platinum electrodes positioned at the base and apex of the left ventricle (LV). The LV is instrumented via the mitral valve with a 4F Millar catheter tip pressure transducer. The catheter is advanced to the apex then withdrawn slightly. Once properly positioned, the catheter is anchored to the perfusion cannulae with an alligator clip. A second heart is excised, cannulated, and perfused by the same method outlined above. Both hearts are tested in parallel. The standard physiological salt solution (PSS) is a modified Krebs Henseleit bicarbonate buffer of the following composition in mM concentration: NaCl, 127; NaHCO^3, 25; dextrose, 5.5; Na Pyruvate, 2.0; KCl, 4.7; MgSO^4, 1.1; KH 2PO^4, 1.2; CaCl^2 ·2H^2, 2.5; CaNa^2 EDTA, 0.05.
A 30-minute stabilization period is observed before starting the test protocol.
A microprocessor control system is used as a servo mechanism which permits coronary perfusion pressure (CPP) and drug concentration to be maintained constant independent of changes in coronary flow. The level at which CPP and drug concentration are maintained can be changed by commands communicated through the microprocessor keyboard. Dose-response curves are carried out by perfusing concentrated drug solution (DC) at rates proportional to total coronary flow (CFT). Drug concentrations are increased by proportionate increases in the rate of DC infusion over CFT via the microprocessor keyboard. The proportional flow rates for DC:CFT are about 0.00005:1 at the low end and 0.0015:1 at the high end of the dose response curve.
Dose-response curves encompassing at least two log units are carried out in one-half log increments starting at a subthreshold dose and ending at a dose which produces near maximal response.
Measurements for CVIH are maximum positive first derivative of LVP (LV+dP/dtmax), heart rate (HR), and coronary flow (CF). Units are: LV+dP/dtmax, millimeters of mercury/second (mm Hg/sec); HR, beats/minute (bpm) and CF, milliliters/minute (ml/min). LV+dP/dtmax is derived from the LVP signal by a differential amplifier and recorded. HR is calculated from the ECG strip chart recording and CF is calculated by recording analog outputs from pumps 1 and 2. Outputs from pump #1 =CFT and the output from pump #2 =CF for heart B (CFB). CF for heart A (CFA) is calculated ([…]). All pumps are calibrated weekly or when pump tubing is replaced.
Compounds are solubilized in DMSO and diluted with water when possible. EC^25 data are obtained from data that is digitized and averaged in a conventional manner.

Experiment [3] has as its system anesthetized dog. The experiment can be described thus: in vivo myocardial inotropic activity in the anesthetized dog. The conditions noted are these: 1 mg/kg, femoral vein, pentobarbital anesthetized dog. The procedure:
TEST FOR IN VIVO MYOCARDIAL INOTROPIC ACTIVITY IN THE ANESTHETIZED DOG
Adult mongrel dogs of either sex are anesthetized with pentobarbital, 35 mg/kg, IV, and are maintained under anesthesia with a continuous infusion of pentobarbital, 3.5 mg/kg/hr. The trachea is intubated, but the animals are permitted to breathe spontaneously. A cannula is inserted into the femoral vein for administering test agents. A Millar catheter tip pressure transducer or a fluid filled catheter is inserted into the ascending aorta via the femoral artery for measuring pressure. A Millar catheter tip pressure transducer is passed into the left ventricle via the left carotid artery for measuring left ventricular blood pressure. Needle electrodes are placed subcutaneously for recording a lead II electrocardiogram. Before administering test agents, control data is acquired over a period of at least thirty minutes.
The test agent is dissolved in dimethylacetamide. Each dose is administered in a volume of 0.5 ml over a period of one minute. Appropriate vehicle controls are also administered.

Experiment [4] relates to isolated Langendorff rat heart. As to the kind of experiment: inotropic and vascular activities in the isolated Langendorff rat heart preparation (CVIH). The conditions noted are these: LV+dP/dtmax; isolated perfused rat heart; EC20 instead of EC25; read-out: EC20 Contractility.
The mark [5] stands for this setting: LV+dP/dtmax, read-out: EC25 Contractility.
[6] abbreviates: coronary flow, read-out: EC25 Flow.

As for `CCOC(=O)C1=C(C)N/C(=C\C(=O)c2ccccc2)C(C(=O)OCC)C1c1ccccn1` (racemic) [Example 16, (2Z,3α,4β)-(±)-Diethyl-1,2,3,4-tetrahydro-6-methyl-2-[2-oxo-2-phenylethylidene]-4-[2-pyridyl]-3,5-pyridinedicarboxylate], the pIC50 in experiment [1] was 7.60. Further, the EC25 in experiment [2] (setting [5]) and in experiment [2] (setting [6]) was 1000 nM in each case.
Turning to `CCOC(=O)C1=C(C)N/C(=C\C(=O)c2ccccc2)[C@@H](C(=O)OCC)[C@@H]1c1ccccc1C(F)(F)F` (relative stereo) [Example 1, (2Z,3α,4β)-(±)-Diethyl-1,2,3,4-tetrahydro-6-methyl-2-(2-oxo-2-phenylethylidene)-4-[2-(trifluoromethyl)-phenyl]-3,5-pyridinedicarboxylate], the pIC50 in experiment [1] was 6.55. Further, the values for the concentration for an effect of 25% (EC25) in experiment [2] (setting [5]) and in experiment [2] (setting [6]) were 100 nM and 300 nM, respectively.
For `CCOC(=O)C1=C(C)N/C(=C\C(=O)c2ccncc2)[C@@H](C(=O)OCC)[C@@H]1c1ccccc1C(F)(F)F` (relative stereo) [Example 2], in experiment [3], the “decrease in blood pressure” value is recorded as 21%, the increase in contractility is on record as 99% and the “increase in heart rate” value is listed as 67%. Further, in experiment [1], the pIC50 was 7.70. For the same compound, the EC25 in experiment [2] (setting [5]) is over 3000 nM. In addition, the EC25 in experiment [2] (setting [6]) was under 100 nM.
For the compound `CCOC(=O)C1=C(C)N/C(=C\C(=O)c2ccc(Cl)cc2)[C@@H](C(=O)OCC)[C@@H]1c1ccccc1C(F)(F)F` (relative stereo) [Example 3, (2Z,3α,4β)-Diethyl-2-[2-(4-chlorophenyl)-2-oxoethylidene]-1,2,3,4-tetrahydro-6-methyl-4-[2-(trifluoromethyl)phenyl]-3,5-pyridinedicarboxylate], the pIC50 in experiment [1] was 6.72. Further, the EC25 in experiment [2] (setting [5]) and in experiment [2] (setting [6]) was under 100 nM each time.
As to `CCOC(=O)C1=C(C)N/C(=C\C(=O)c2ccc(F)cc2)[C@@H](C(=O)OCC)[C@@H]1c1ccccc1C(F)(F)F` (relative stereo) [Example 4, (2Z,3α,4β)-Diethyl-2-[2-(4-fluorophenyl)-2-oxoethylidene]-1,2,3,4-tetrahydro-6-methyl-4-[2-(trifluoromethyl)phenyl]-3,5-pyridinedicarboxylate], in experiment [1], the pIC50 was 7.28. Besides, the EC25 in experiment [2] (setting [5]) is over 3000 nM; in experiment [2] (setting [6]) it was 300 nM.
The matching figures for `CCOC(=O)C1=C(C)N/C(=C\C(=O)c2ccc(C)cc2)[C@@H](C(=O)OCC)[C@@H]1c1ccccc1C(F)(F)F` (relative stereo) [Example 5, (2Z,3α,4β)-Diethyl-2-[2-(4-methylphenyl)-2-oxoethylidene]-1,2,3,4-tetrahydro-6-methyl-4-[2(trifluoromethyl)phenyl]-3,5-pyridinedicarboxylate]: 6.44, over 3000 nM and 130 nM.
In the case of `CCOC(=O)C1=C(C)N/C(=C\C(=O)c2ccc(N(C)C)cc2)[C@@H](C(=O)OCC)[C@@H]1c1ccccc1C(F)(F)F` (relative stereo) [Example 6, (2Z,3α,4β)-(±) -Diethyl-1,2,3,4-tetrahydro-6-methyl-2-[2-oxo-2-4-(dimethylamino)phenyl)ethylidene]-4-[2-(trifluoromethyl)phenyl]-3,5-pyridine-dicarboxylate], the EC25 in experiment [2] (setting [5]) is over 3000 nM; in experiment [2] (setting [6]), 200 nM.
For `CCOC(=O)[C@H]1/C(=C/C(=O)c2ccccc2)NC(C)=C([N+](=O)[O-])[C@@H]1c1ccccc1C(F)(F)F` (relative stereo) [Example 7, (2Z,3α,4β)-(±)-1,2,3,4-Tetrahydro-6-methyl-5-nitro-2-[2-oxo-2-phenylethylidene]-4-[2-(trifluoromethyl)phenyl]-3-pyridinedicarboxylic acid ethyl ester], in experiment [1], the pIC50 is 6.89. The EC25 in experiment [2] (setting [5]) was over 3000 nM; in experiment [2] (setting [6]) it was 100 nM.
The matching figures for `CC1=C([N+](=O)[O-])[C@H](c2ccccc2C(F)(F)F)[C@@H](C(=O)c2ccccc2)/C(=C/C(=O)c2ccccc2)N1` (relative stereo) [Example 8, [trans-(Z)]-2-[3-Benzoyl-3,4-dihydro-6-methyl-5-nitro-4-[2-(trifluoromethyl)phenyl]-2-(1H)pyridinylidene]1-phenylethanone]: under 6.00, over 3000 nM and 300 nM.
In the same order, the values of `CCOC(=O)C1=C(C)N/C(=C\C(=O)c2ccccc2)[C@@H](C(=O)c2ccccc2)[C@@H]1c1ccccc1C(F)(F)F` (relative stereo) [Example 9, (4α,5β,6Z)-(±)-Ethyl-5-benzoyl-1,4,5,6-tetrahydro-2-methyl-6-(2-oxo-2-phenylethylidene)-4-[2-trifluoromethyl)phenyl]3-pyridinecarboxylate] are 6.96, 1200 nM and 400 nM.
The matching figures for `CCOC(=O)[C@@H]1/C(=C/C(=O)c2ccccc2)NC2=C(C(=O)CCC2)[C@H]1c1ccccc1C(F)(F)F` (relative stereo) [Example 10]: under 6.00, 2000 nM and 1400 nM.
Take `CCOC(=O)[C@@H]1/C(=C2\CCc3ccccc3C2=O)NC(C)=C(C#N)[C@H]1c1ccccc1C(F)(F)F` (relative stereo) [Example 11]: the pIC50 in experiment [1] was under 6.00. For the same compound, in experiment [2] (setting [6]), the EC25 stood at 1000 nM. For the same compound, in experiment [4], the EC20 came to 1000 nM.
Turning to `CCOC(=O)C1=C(C)NC(=C2CCc3ccccc3C2=O)[C@@H](C(=O)OCC)[C@@H]1c1ccccc1C(F)(F)F` (relative stereo) [Example 12], the pIC50 in experiment [1] was under 6.00.
With `CCOC(=O)C1=C(C)N/C(=C\C(=O)c2ccccc2)[C@@H](C(=O)OCC)[C@@H]1c1cccc([N+](=O)[O-])c1` (relative stereo) [Example 14, (2Z,3α,4β)-(±)-Diethyl-1,2,3,4-tetrahydro-6-methyl-2-[2-oxo-2-phenylethylidene]-4-[3-nitrophenyl]-3,5-pyridinedioarboxylate], in experiment [1], the pIC50 was 7.07. Also, the EC25 in experiment [2] (setting [5]) and in experiment [2] (setting [6]) was 1000 nM each time.
Take `CCOC(=O)C1=C(C)N/C(=C\C(=O)c2ccccc2)[C@@H](C(=O)OCC)[C@@H]1c1cccc(Cl)c1Cl` (relative stereo) [Example 15, (2Z,3α,4β)-(±)-Diethyl-1,2,3,4-tetrahydro-6-methyl-2-[2-oxo-2-phenylethylidene]-4-2,3-dichlorophenyl]-3,5-pyridinedicarboxylate]: the pIC50 in experiment [1] is 6.74. Also, the EC25 in experiment [2] (setting [5]) and in experiment [2] (setting [6]) was 1000 nM each time.
Consider “(2Z,3α,4β)-(±)-Diethyl-1,2,3,4-tetrahydro-6-methyl-2-[2-oxo-2-phenylethylidene]-4-[2-nitrophenyl-3,5-pyridinedicarboxylate [Example 13]”, for which, in experiment [1], the pIC50 was 7.41. For the same compound, the EC25 in experiment [2] (setting [5]) and in experiment [2] (setting [6]) was 1000 nM in each case.

The values above are taken from patent publication US4732898A, “2-(2-aryl-2-oxoalkylidene) analogs of-3,5-pyridinedicarboxylic acid dialkyl esters useful for treatment of cardiovascular disorders” (Warner-Lambert Company, priority 1987, dated 1988).
